{"source": "patent US20240024273A1", "about": "“TOPICAL ADMINISTRATION OF 2-(DIETHYLAMINO)ETHYL 2-(4-ISOBUTYLPHENYL)PROPRIONATE FOR TREATMENT OF DISEASES” (TECHFIELDS PHARMA CO., LTD., priority 2020, published 2024)", "system": "Mild to Moderate Osteoarthritis of the Knee", "experiment": "Phase 2 study: WOMAC joint stiffness subscale score", "type": "in vivo, human", "conditions": "for Change of WOMAC Joint Stiffness score from baseline (±SEM), adjusted by […] of the Testing Drug Amount / Percentage of improvement from baseline, WOMAC Joint Stiffness score, adjusted by […] of the Testing Drug Amount / Change of WOMAC Joint Stiffness score from baseline (±SEM) / Percentage of improvement from baseline, WOMAC Joint Stiffness score: 35 mg/knee (BID); for Change of WOMAC Joint Stiffness score from baseline (±SEM) / Percentage of improvement from baseline, WOMAC Joint Stiffness score: all patients taken as active; for WOMAC Joint Stiffness Subscale Score, Avg.: Avg. of all patients; for WOMAC Joint Stiffness Subscale Score, Avg. / WOMAC Joint Stiffness Subscale Score: blinded; for WOMAC Joint Stiffness Subscale Score: individual patient", "excerpt": "This is a Phase 2, multicenter, randomized, double blind (within dose), placebo controlled, parallel group, proof of concept, and dose range finding study to evaluate the efficacy, safety, and PK of 2-(diethylamino)ethyl 2-(4-isobutylphenyl)propionate hydrochloride spray in adult subjects with clinically symptomatic mild to moderate OA of the knee. For subjects with bilateral knee pain, both knees will be treated, but the most symptomatic knee (i.e., the most painful knee as measured by the Western Ontario and McMaster University Osteoarthritis Index [WOMAC® 3.1] pain subscale score at Screening) will be designated as the target knee for efficacy analyses. For subjects with unilateral knee pain, only the symptomatic (target) knee will be treated.\nAfter a Screening Period of up to 3 weeks and radiographic evaluation of the target knee joint space, a subject will be randomly assigned to 1 of 3 treatment groups in a 1:1:1 ratio with a 2:1 ratio of active:placebo within each treatment group (ie, 2 subjects to active treatment and 1 subject to placebo): • Group A: 8.75 mg 2-(diethylamino)ethyl 2-(4-isobutylphenyl)propionate/knee (2 sprays/knee, one spray to the medial surface and one spray to the lateral surface of the knee), twice daily (BID, approximately every 12 hours; n=50) or placebo (2 sprays/knee), BID (approximately every 12 hours; n=25) for a total of 4 sprays per knee per day; • Group B: 17.5 mg 2-(diethylamino)ethyl 2-(4-isobutylphenyl)propionate/knee (4 sprays/knee, one spray to the medial surface and one spray to the lateral surface of the knee, and one spray to front and one spray to the back of the knee), BID (approximately every 12 hours; n=50) or placebo (4 sprays/knee), BID (approximately every 12 hours; n=25) for a total of 8 sprays per knee per day; • Group C: 35 mg 2-(diethylamino)ethyl 2-(4-isobutylphenyl)propionate/knee (8 sprays/knee, each spray is to be applied to a different non-overlapping area around the knee, and the areas are to be uniformly distributed around the knee), BID (approximately every 12 hours; n=50) or placebo (8 sprays/knee), BID (approximately every 12 hours; n=25) for a total of 16 sprays per knee per day.\nThe VAS version of the WOMAC will be used for the Primary and Secondary Efficacy Endpoints. Efficacy endpoints will be assessed at Screening and Baseline (Day 1) and at the Week 2, Week 4, Week 8, and Week 12/EOS visits.\n3.9.2. Secondary Efficacy Endpoints: • 1. Change from Baseline in the WOMAC (VAS) pain subscale score for the target knee at 2, 4, and 8 weeks of treatment; • 2. Change from Baseline in the WOMAC (VAS) stiffness subscale scores for the target knee and WOMAC (VAS) functional ability subscale scores at 2, 4, 8, and 12 weeks of treatment; • 3. Change from Baseline in the overall WOMAC (VAS) score at 2, 4, 8, and 12 weeks of treatment.\nThe Secondary Efficacy Endpoints, change from Baseline in the WOMAC subscale scores for pain, stiffness, and functional ability, and overall WOMAC score at 2, 4, 8, and 12 weeks of treatment, will be analyzed using the same methods as for the Primary Efficacy Endpoint.\nTo determine this, we assumed that all patients received 2-(diethylamino)ethyl 2-(4-isobutylphenyl)propionate, active drug treatment (i.e. all patients who received 2-(diethylamino)ethyl 2-(4-isobutylphenyl)propionate or placebo treatment for 12 weeks or mixed up treatment during the 12-week treatment, as 2-(diethylamino)ethyl 2-(4-isobutylphenyl)propionate-treated). Based on this assumption, that is, to treat this trial as an open-label study and that all patients received active treatment, we conducted efficacy analysis using top-line efficacy datasets prepared by CRO and the re-analysis results are presented in the following tables (Tables 29-47). […] (William G. Bensen, Justus J. Fiechtner, James 1. McMillen, et. al. Treatment of Osteoarthritis with Celecoxib. Mayo Clin Proc, November 1999. Vol 74, 1095-1105.)", "key": {"[1]": {"conditions": "Middle Dose (4 spray/knee, 17.5 mg/knee) Cohort, Day 1"}, "[2]": {"conditions": "Middle Dose (4 spray/knee, 17.5 mg/knee) Cohort, Week 2"}}, "data": [{"smiles": "CCN(CC)CCOC(=O)C(C)c1ccc(CC(C)C)cc1", "note": "(centres unmarked) [2-(diethylamino)ethyl 2-(4-isobutylphenyl)propionate]", "values": [{"measurement": "Change of WOMAC Joint Stiffness score from baseline (±SEM), adjusted by […] of the Testing Drug Amount", "setting": "Week 8 (day 56)", "result": "−36.9(±5.8) mm"}, {"measurement": "Percentage of improvement from baseline, WOMAC Joint Stiffness score, adjusted by […] of the Testing Drug Amount", "setting": "Week 8 (day 56)", "result": "−59.3", "unit": "%"}, {"measurement": "Change of WOMAC Joint Stiffness score from baseline (±SEM)", "setting": "Week 8 (day 56)", "result": "−21.5(±3.4) mm"}, {"measurement": "Percentage of improvement from baseline, WOMAC Joint Stiffness score", "setting": "Week 8 (day 56)", "result": "−34.6", "unit": "%"}, {"measurement": "Change of WOMAC Joint Stiffness score from baseline (±SEM), adjusted by […] of the Testing Drug Amount", "setting": "Week 12 (day 84)", "result": "−41.2(±5.7) mm"}, {"measurement": "Percentage of improvement from baseline, WOMAC Joint Stiffness score, adjusted by […] of the Testing Drug Amount", "setting": "Week 12 (day 84)", "result": "−66.2", "unit": "%"}, {"measurement": "Change of WOMAC Joint Stiffness score from baseline (±SEM)", "setting": "Week 12 (day 84)", "result": "−24.0(±3.3) mm"}, {"measurement": "Percentage of improvement from baseline, WOMAC Joint Stiffness score", "setting": "Week 12 (day 84)", "result": "−38.6", "unit": "%"}, {"measurement": "reduction of Stiffness WOMAC from baseline to week 12", "setting": "5 patients on second batch active drug kits", "result": "58.6-100%"}, {"measurement": "WOMAC Joint Stiffness Subscale Score, Avg.", "setting": "35 mg/knee (8 spray/knee), Day 1", "result": 62.1}, {"measurement": "WOMAC Joint Stiffness Subscale Score, Avg.", "setting": "35 mg/knee (8 spray/knee), Follow-up", "result": 37.7}, {"measurement": "WOMAC Joint Stiffness Subscale Score, Avg.", "setting": "35 mg/knee (8 spray/knee), Week 2", "result": 50.8}, {"measurement": "WOMAC Joint Stiffness Subscale Score, Avg.", "setting": "35 mg/knee (8 spray/knee), Week 4", "result": 44.5}, {"measurement": "WOMAC Joint Stiffness Subscale Score, Avg.", "setting": "35 mg/knee (8 spray/knee), Week 8", "result": 40.6}, {"measurement": "WOMAC Joint Stiffness Subscale Score, Avg.", "setting": "35 mg/knee (8 spray/knee), Week 12", "result": 38.1}, {"measurement": "WOMAC Joint Stiffness Subscale Score, Avg.", "setting": "[1]", "result": 68.0}, {"measurement": "WOMAC Joint Stiffness Subscale Score, Avg.", "setting": "Middle Dose (4 spray/knee, 17.5 mg/knee) Cohort, Follow-up", "result": 41.9}, {"measurement": "WOMAC Joint Stiffness Subscale Score, Avg.", "setting": "[2]", "result": 49.2}, {"measurement": "WOMAC Joint Stiffness Subscale Score, Avg.", "setting": "Middle Dose (4 spray/knee, 17.5 mg/knee) Cohort, Week 4", "result": 44.7}, {"measurement": "WOMAC Joint Stiffness Subscale Score, Avg.", "setting": "Middle Dose (4 spray/knee, 17.5 mg/knee) Cohort, Week 8", "result": 41.5}, {"measurement": "WOMAC Joint Stiffness Subscale Score, Avg.", "setting": "Middle Dose (4 spray/knee, 17.5 mg/knee) Cohort, Week 12", "result": 38.2}, {"measurement": "WOMAC Joint Stiffness Subscale, WOMAC VAS Score", "setting": "Patient 1056, second batch active drug kits, Day 1", "result": 48.5, "unit": "mm"}, {"measurement": "WOMAC Joint Stiffness Subscale, WOMAC VAS Score", "setting": "Patient 1056, second batch active drug kits, Follow Up", "result": 17.0, "unit": "mm"}, {"measurement": "WOMAC Joint Stiffness Subscale, WOMAC VAS Score", "setting": "Patient 1056, second batch active drug kits, Week 2", "result": 45.0, "unit": "mm"}, {"measurement": "WOMAC Joint Stiffness Subscale, WOMAC VAS Score", "setting": "Patient 1056, second batch active drug kits, Week 4", "result": 44.5, "unit": "mm"}, {"measurement": "WOMAC Joint Stiffness Subscale, WOMAC VAS Score", "setting": "Patient 1056, second batch active drug kits, Week 8", "result": 43.5, "unit": "mm"}, {"measurement": "WOMAC Joint Stiffness Subscale, WOMAC VAS Score", "setting": "Patient 1056, second batch active drug kits, Week 12", "result": 23.5, "unit": "mm"}, {"measurement": "WOMAC Joint Stiffness Subscale, WOMAC VAS Score", "setting": "Patient 1064, second batch active drug kits, Day 1", "result": 66.5, "unit": "mm"}, {"measurement": "WOMAC Joint Stiffness Subscale, WOMAC VAS Score", "setting": "Patient 1064, second batch active drug kits, Follow Up", "result": 1.0, "unit": "mm"}, {"measurement": "WOMAC Joint Stiffness Subscale, WOMAC VAS Score", "setting": "Patient 1064, second batch active drug kits, Week 2", "result": 20.5, "unit": "mm"}, {"measurement": "WOMAC Joint Stiffness Subscale, WOMAC VAS Score", "setting": "Patient 1064, second batch active drug kits, Week 4", "result": 12.5, "unit": "mm"}, {"measurement": "WOMAC Joint Stiffness Subscale, WOMAC VAS Score", "setting": "Patient 1064, second batch active drug kits, Week 8", "result": 0.0, "unit": "mm"}, {"measurement": "WOMAC Joint Stiffness Subscale, WOMAC VAS Score", "setting": "Patient 1064, second batch active drug kits, Week 12", "result": 1.0, "unit": "mm"}, {"measurement": "WOMAC Joint Stiffness Subscale, WOMAC VAS Score", "setting": "Patient 1535, second batch active drug kits, Day 1", "result": 55.0, "unit": "mm"}, {"measurement": "WOMAC Joint Stiffness Subscale, WOMAC VAS Score", "setting": "Patient 1535, second batch active drug kits, Follow Up", "result": 0.0, "unit": "mm"}, {"measurement": "WOMAC Joint Stiffness Subscale, WOMAC VAS Score", "setting": "Patient 1535, second batch active drug kits, Week 2", "result": 3.5, "unit": "mm"}, {"measurement": "WOMAC Joint Stiffness Subscale, WOMAC VAS Score", "setting": "Patient 1535, second batch active drug kits, Week 4", "result": 3.0, "unit": "mm"}, {"measurement": "WOMAC Joint Stiffness Subscale, WOMAC VAS Score", "setting": "Patient 1535, second batch active drug kits, Week 8", "result": 3.0, "unit": "mm"}, {"measurement": "WOMAC Joint Stiffness Subscale, WOMAC VAS Score", "setting": "Patient 1535, second batch active drug kits, Week 12", "result": 0.0, "unit": "mm"}, {"measurement": "WOMAC Joint Stiffness Subscale, WOMAC VAS Score", "setting": "Patient 1539, second batch active drug kits, Day 1", "result": 70.0, "unit": "mm"}, {"measurement": "WOMAC Joint Stiffness Subscale, WOMAC VAS Score", "setting": "Patient 1539, second batch active drug kits, Follow Up", "result": 2.0, "unit": "mm"}, {"measurement": "WOMAC Joint Stiffness Subscale, WOMAC VAS Score", "setting": "Patient 1539, second batch active drug kits, Week 2", "result": 54.5, "unit": "mm"}, {"measurement": "WOMAC Joint Stiffness Subscale, WOMAC VAS Score", "setting": "Patient 1539, second batch active drug kits, Week 4", "result": 44.0, "unit": "mm"}, {"measurement": "WOMAC Joint Stiffness Subscale, WOMAC VAS Score", "setting": "Patient 1539, second batch active drug kits, Week 8", "result": 8.0, "unit": "mm"}, {"measurement": "WOMAC Joint Stiffness Subscale, WOMAC VAS Score", "setting": "Patient 1539, second batch active drug kits, Week 12", "result": 3.0, "unit": "mm"}, {"measurement": "WOMAC Joint Stiffness Subscale, WOMAC VAS Score", "setting": "Patient 9032, second batch active drug kits, Day 1", "result": 14.5, "unit": "mm"}, {"measurement": "WOMAC Joint Stiffness Subscale, WOMAC VAS Score", "setting": "Patient 9032, second batch active drug kits, Follow Up", "result": 9.5, "unit": "mm"}, {"measurement": "WOMAC Joint Stiffness Subscale, WOMAC VAS Score", "setting": "Patient 9032, second batch active drug kits, Week 2", "result": 9.5, "unit": "mm"}, {"measurement": "WOMAC Joint Stiffness Subscale, WOMAC VAS Score", "setting": "Patient 9032, second batch active drug kits, Week 4", "result": 5.0, "unit": "mm"}, {"measurement": "WOMAC Joint Stiffness Subscale, WOMAC VAS Score", "setting": "Patient 9032, second batch active drug kits, Week 8", "result": 3.0, "unit": "mm"}, {"measurement": "WOMAC Joint Stiffness Subscale, WOMAC VAS Score", "setting": "Patient 9032, second batch active drug kits, Week 12", "result": 6.0, "unit": "mm"}, {"measurement": "WOMAC Joint Stiffness Subscale Score", "setting": "[1]", "result": 64.5}, {"measurement": "WOMAC Joint Stiffness Subscale Score", "setting": "[2]", "result": 62.0}]}]}
